Measurements from patent US20090226500A1, “SUTURES AND ANTI-SCARRING AGENTS” (Angiotech Pharmaceuticals, Inc, priority 2006, published 2009).
Read-outs that look alike come from different tables or passages of the source.

Legend:
[1] = system: MCP-1 production by THP-1 cells; experiment: MCP-1 production by macrophages; assay type: cell-based, human; details: read-out: IC50 MCP-1 production
Procedure: (§1) The human macrophage cell line, THP-1 was plated in a 12 well plate such that each well contains 1×10^6 cells in 2 ml of media containing 10% FCS. Opsonized zymosan was prepared by resuspending 20 mg of zymosan A in 2 ml of ddH2O and homogenizing until a uniform suspension was obtained. Homogenized zymosan was pelleted at 250 g and resuspended in 4 ml of human serum for a final concentration of 5 mg/ml and incubated in a 37° C. water bath for 20 minutes to enable opsonization. Geldanamycin was prepared in DMSO at a concentration of 10^−2 M and serially diluted 10-fold to give a range of stock concentrations (10^−8 M to 10^−2 M).
(§2) THP-1 cells were stimulated to produce MCP-1 by the addition of 1 mg/ml opsonized zymosan. Eldanamycin was added to THP-1 cells by directly adding DMSO stock solutions, prepared earlier, at a 1/1000 dilution, to each well. Each drug concentration was tested in triplicate wells. Plates were incubated at 37° C. for 24 hours.
After a 24-hour stimulation, supernatants were collected to quantify MCP-1 production. MCP-1 concentrations in the supernatants were determined by ELISA using recombinant human MCP-1 to obtain a standard curve. A 96-well MaxiSorb plate was coated with 100 μL of anti-human MCP-1 Capture Antibody diluted in Coating Buffer (0.1M sodium carbonate pH 9.5) overnight at 4° C. The dilution of Capture Antibody used was lot-specific and was determined empirically. Capture antibody was then aspirated and the plate washed 3 times with Wash Buffer (PBS, 0.05% TWEEN-20). Plates were blocked for 1 hour at room temperature with 200 μL/well of Assay Diluent (PBS, 10% FCS pH 7.0). After blocking, plates were washed 3 times with Wash Buffer. […] Sample supernatants and standards were assayed in triplicate and were incubated at room temperature for 2 hours after addition to the plate coated with Capture Antibody. The plates were washed 5 times and incubated with 100 μL of Working Detector (biotinylated anti-human MCP-1 detection antibody+avidin-HRP) for 1 hour at room temperature. Following this incubation, the plates were washed 7 times and 100 μL of Substrate Solution (tetramethylbenzidine, H2O2) was added to plates and incubated for 30 minutes at room temperature. […] Mean absorbance was determined from triplicate data readings and the mean background was subtracted. MCP-1 concentration values were obtained from the standard curve.

[2] = system: TNFα production by THP-1 cells; experiment: TNF-alpha production by macrophages; assay type: cell-based, human; details: read-out: IC50 TNFα production
Procedure: as §1, with “12-well” for “12 well”, “opsonization.” for “opsonization. Geldanamycin was prepared in DMSO at a concentration of 10^−2 M and serially diluted 10-fold to give a range of stock concentrations (10^−8 M to 10^−2 M).”
THP-1 cells were stimulated to produce TNFα by the addition of 1 mg/ml opsonized zymosan. […] Each drug concentration was tested in triplicate wells. Plates were incubated at 37° C. for 24 hours.
After a 24-hour stimulation, supernatants were collected to quantify TNFα production. TNFα concentrations in the supernatants were determined by ELISA using recombinant human TNFα to obtain a standard curve A 96-well MaxiSorb plate was coated with 100 μL of anti-human TNFα Capture Antibody diluted in Coating Buffer (0.1M sodium carbonate pH 9 5) overnight at 4° C. The dilution of Capture Antibody used was lot-specific and was determined empirically. Capture antibody was then aspirated and the plate washed 3 times with Wash Buffer (PBS, 0.05% TWEEN-20) Plates were blocked for 1 hour at room temperature with 200 μL/well of Assay Diluent (PBS, 10% FCS pH 7.0). After blocking, plates were washed 3 times with Wash Buffer. […] Sample supernatants and standards were assayed in triplicate and were incubated at room temperature for 2 hours after addition to the plate coated with Capture Antibody. The plates were washed 5 times and incubated with 100 μL of Working Detector (biotinylated anti-human TNFα detection antibody+avidin-HRP) for 1 hour at room temperature. Following this incubation, the plates were washed 7 times and 100 μL of Substrate Solution (tetramethylbenzidine, H2O2) was added to plates and incubated for 30 minutes at room temperature. […] Mean absorbance was determined from triplicate data readings and the mean background was subtracted. TNFα concentration values were obtained from the standard curve.

[3] = system: Smooth muscle cells; experiment: Proliferation of smooth muscle cells; assay type: cell-based; details: read-out: IC50 proliferation of smooth muscle cells
Procedure: Smooth muscle cells at 70-90% confluency were trypsinized, replated at 600 cells/well in media in 96-well plates and allowed to attachment overnight. Paclitaxel was prepared in DMSO at a concentration of 10^−2 M and diluted 10-fold to give a range of stock concentrations (10^−8 M to 10^−2 M). […] Each drug concentration was tested in triplicate wells. Plates containing cells and paclitaxel were incubated at 37° C. for 72 hours.
(§3) To terminate the assay, the media was removed by gentle aspiration A 1/400 dilution of CYQUANT 400×GR dye indicator (Molecular Probes; Eugene, Oreg.) was added to 1× Cell Lysis buffer, and 200 μL of the mixture was added to the wells of the plate. Plates were incubated at room temperature, protected from light for 3-5 minutes.

[4] = system: IL-8 production by THP-1 cells; experiment: IL-8 production by macrophages; assay type: cell-based, human; details: THP-1 cells stimulated with opsonized zymosan, 24 hours, read-out: IC50 IL-8 production
Procedure: as §1, with “g,” for “g and”, “mg/ml,” for “mg/ml”
as §2, with “IL-8” for “MCP-1”, “Geldanamycin” for “Eldanamycin”
After a 24-hour stimulation, supernatants were collected to quantify IL-8 production. IL-8 concentrations in the supernatants were determined by ELISA using recombinant human IL-8 to obtain a standard curve. A 96-well MAXISORB plate was coated with 100 μL of anti-human IL-8 Capture Antibody diluted in Coating Buffer (0.1M sodium carbonate pH 9.5) overnight at 4° C. The dilution of Capture Antibody used was lot-specific and was determined empirically. Capture antibody was then aspirated and the plate washed 3 times with Wash Buffer (PBS, 0.05% TWEEN-20). Plates were blocked for 1 hour at room temperature with 200 μL/well of Assay Diluent (PBS, 10% FCS pH 7.0). After blocking, plates were washed 3 times with Wash Buffer. Standards and sample dilutions were prepared as follows: (a) sample supernatants were diluted 1/100 and 1/1000; (b) recombinant human IL-8 was prepared at 200 pg/ml and serially diluted to yield as standard curve of 3.1 pg/ml to 200 pg/ml Sample supernatants and standards were assayed in triplicate and were incubated at room temperature for 2 hours after addition to the plate coated with Capture Antibody The plates were washed 5 times and incubated with 100 μL of Working Detector (biotinylated anti-human IL-8 detection antibody+avidin-HRP) for 1 hour at room temperature. Following this incubation, the plates were washed 7 times and 100 μL of Substrate Solution (Tetramethylbenzidine, H2O2) was added to plates and incubated for 30 minutes at room temperature. Stop Solution (2 NH2SO4) was then added to the wells and a yellow color reaction was read at 450 nm with A correction at 570 nm. Mean absorbance was determined from triplicate data readings and the mean background was subtracted. IL-8 concentration values were obtained from the standard curve. […] The IC50 values for the following additional compounds were determined using this assay: IC50 (nM): 17-AAG, 56; mycophenolic acid, 549; resveratrol, 507; rapamycin, 4; 41; SP600125, 344; halofuginone, 641; D-mannose-6-phosphate, 220; epirubicin hydrochloride, 654; topotemay, 257; mithramycin, 33; daunorubicin, 421; celastrol, 490; chromomycin A3, 36

[5] = system: IL-1β production by THP-1 cells; experiment: IL-1β production by macrophages; assay type: cell-based, human; details: THP-1 cells stimulated with opsonized zymosan, 24 hours, read-out: IC50 IL-1β production
[6] = system: human fibroblasts; experiment: Cell proliferation of fibroblasts; assay type: cell-based; details: Fibroblast, 72 hours, CYQUANT, read-out: IC50 cell proliferation of fibroblasts
Procedure: Fibroblasts at 70-90% confluency are trypsinized, replated at 600 cells/well in media in 96-well plates and allowed to attachment overnight. […] Each drug concentration is tested in triplicate wells. Plates containing fibroblasts and drug substance are incubated at 37° C. for 72 hours.
as §3, with “is” for “was”, “aspiration.” for “aspiration”, “400×GR™” for “400×GR”, “are” for “were”

[7] = THP-1 cells stimulated with opsonized zymosan, 24 hours
[8] = Homo sapiens, THP-1 cells stimulated with opsonized zymosan, 24 hours

CCCCC/C=C/C=C1/C(=O)C=C[C@@H]1C/C=C\CCCC(=O)O [15-deoxy prostaglandin J2, 15-Deoxy-D12,14-prostaglandin J2]
IC50 [1, 7]: 724 nM
IC50 [2, 7]: 742 nM

C=CCNC1=C2C[C@@H](C)C[C@H](OC)[C@H](O)[C@@H](C)/C=C(\C)[C@H](OC(N)=O)[C@@H](OC)/C=C\C=C(/C)C(=O)NC(=CC1=O)C2=O [17-AAG, 17-allylaminogeldanamycin]
IC50 ([3]; 72 hours, CYQUANT): 47 nM
IC50 [4]: 56 nM
IC50 [1, 7]: 135 nM

Cc1ccc(S(=O)(=O)/C=C/C#N)cc1 [Bay 11-7082]
IC50 [2, 7]: 810 nM

O=C[C@@H](O)[C@@H](O)[C@H](O)[C@H](O)COP(=O)(O)O [D-mannose-6-phosphate]
IC50 ([4]; Homo sapiens): 220 nM

C[C@H](NC(=O)C(=O)Nc1ccccc1C(C)(C)C)C(=O)N[C@@H](CC(=O)O)C(=O)COc1c(F)c(F)cc(F)c1F [IDN-6556]
IC50 ([5]; Homo sapiens): 642 nM

COc1c(C)c2c(c(O)c1C/C=C(\C)CCC(=O)OCCN1CCOCC1)C(=O)OC2 [Mycophenolate mofetil]
IC50 ([3]; 72 hours, CYQUANT): 463 nM
IC50 [1, 8]: 217 nM
IC50 [2, 8]: 792 nM
IC50 [6]: 600 to 1200 nM

Fc1ccc(-c2nc3n(c2-c2ccncc2)CCS3)cc1 [SKF 86002]
IC50 [2, 8]: 831 nM

Oc1c2ccccc2c2c3c(cccc13)N=N2 [SP600125]
IC50 ([4]; Homo sapiens): 344 nM
IC50 [6]: 1200 to 10000 nM

COc1ccc(C[C@H]2NC[C@H](O)[C@H]2OC(C)=O)cc1 [anisomycin]
IC50 ([3]; 72 hours, CYQUANT): 276 nM
IC50 [1, 7]: 71 nM
IC50 [5]: 127 nM

CN(C)CCCN1c2ccccc2Sc2ccc(Cl)cc21 [chlorpromazine]
IC50 [1, 8]: 0.011 nM
IC50 [2, 8]: 6 nM

COC1=C2C[C@@H](C)C[C@H](OC)[C@H](O)[C@@H](C)/C=C(\C)[C@H](OC(N)=O)[C@@H](OC)/C=C\C=C(/C)C(=O)NC(=CC1=O)C2=O [geldanamycin]
IC50 ([3]; 72 hours, CYQUANT): 5 nM
IC50 [2, 8]: 14 nM
IC50 [6]: 0.1 to 10 nM

O=C1[O][Pt]2([NH][C@@H]3CCCC[C@H]3[NH]2)[O]C1=O [oxalipatin, Oxaliplatin]
IC50 [5]: 107 nM

COc1cc([C@@H]2c3cc4c(cc3[C@H](O)[C@H]3COC(=O)[C@H]23)OCO4)cc(OC)c1OC [podophyllotoxin]
IC50 ([3]; 72 h): 21 nM
IC50 ([1]; Homo sapiens, THP-1, 24 h): 28 nM
IC50 ([2]; Homo sapiens, THP-1, 24 h): 75 nM
IC50 [6]: 100 to 600 nM

Oc1ccc(C=Cc2cc(O)cc(O)c2)cc1 [resveratrol]
IC50 ([4]; Homo sapiens): 507 nM

CC[C@]1(O)C[C@@H]2CN(CCc3c([nH]c4ccccc34)[C@@](C(=O)OC)(c3cc4c(cc3OC)N(C)[C@H]3[C@@](O)(C(=O)OC)[C@H](OC(C)=O)[C@]5(CC)C=CCN6CC[C@]43[C@@H]65)C2)C1 [vinblastine]
IC50 ([3]; 72 hours, CYQUANT): 3 nM
IC50 [1, 7]: 19 nM
IC50 [2, 7]: 65 nM

CCC1=C[C@@H]2CN(C1)Cc1c([nH]c3ccccc13)[C@@](C(=O)OC)(c1cc3c(cc1OC)N(C)[C@H]1[C@@](O)(C(=O)OC)[C@H](OC(C)=O)[C@]4(CC)C=CCN5CC[C@]31[C@@H]54)C2 [vinorelbine]
IC50 ([3]; 72 hours, CYQUANT): 15 nM
IC50 [1, 7]: 69 nM
IC50 [2, 7]: 605 nM

Mithramycin A
IC50 ([3]; 72 hours, CYQUANT): 19 nM
IC50 [4]: 33 nM
IC50 [1, 7]: 18 nM
IC50 [2, 7]: 570 nM
